Calls of active or inactive are those of the source. The calls are words filed in the database; no cut-off is given here.
Key:
Penicillium oxalicum = assay: Antifungal activity against Penicillium oxalicum CBS 219.30 by bioautographic test; type: functional
Biomphalaria glabrata [1] = assay: Molluscicidal activity in Biomphalaria glabrata assessed as mortality at 6 ppm; type: functional, organism-based
Micrococcus luteus = assay: Antibacterial activity against Micrococcus luteus ATCC 9341 up to 24 ug by bioautographic test; type: functional, organism-based
Escherichia coli = assay: Antibacterial activity against Escherichia coli ATCC 25922 up to 24 ug by bioautographic test; type: functional, organism-based
Artemia salina = assay: Toxicity against Artemia salina assessed as mortality; type: organism-based; details: in vivo
Bacillus subtilis = assay: Antibacterial activity against Bacillus subtilis ATCC 6633 up to 24 ug by bioautographic test; type: functional, organism-based
Biomphalaria glabrata [2] = assay: Molluscicidal activity in Biomphalaria glabrata assessed as mortality at 2.5 ppm; type: functional
[3] = Toxicity against Artemia salina assessed as mortality at 100 ug/ml; type: organism-based; details: in vivo, read-out: Activity
[4] = Toxicity against Artemia salina assessed as mortality at 10 ug/ml; type: organism-based; details: in vivo, read-out: Activity
[5] = Toxicity against Artemia salina assessed as mortality at 120 ug/ml; type: organism-based; details: in vivo, read-out: Activity
Biomphalaria glabrata [6] = assay: Molluscicidal activity in Biomphalaria glabrata assessed as mortality at 5 ppm; type: functional
[7] = Toxicity against Artemia salina assessed as mortality at 12 ug/ml; type: organism-based; details: in vivo, read-out: Activity

Row | Compound | MIC (Penicillium oxalicum) | Activity (Biomphalaria glabrata [1]) | Activity (Micrococcus luteus) | Activity (Escherichia coli) | Activity (Artemia salina) | Activity (Bacillus subtilis) | Activity (Biomphalaria glabrata [2]) | mortality at 100 ug/ml [3] | mortality at 10 ug/ml [4] | mortality at 120 ug/ml [5] | Activity (Biomphalaria glabrata [6]) | mortality at 12 ug/ml [7]
1 | C=C(/C=C/[C@@H](Cl)[C@](C)(Cl)/C=C/Br)CCl (relative stereo) | 0.1 µg | inactive | inactive | inactive | Not Active | inactive |  |  |  |  |  | 
2 | C[C@]1(Cl)C[C@](C)(Br)[C@@H](/C=C/Cl)C[C@H]1Br | 10 µg |  | inactive | inactive |  | inactive | 100% | 100% | 20% |  |  | 
3 | C[C@]1(Cl)C[C@](C)(/C=C/Cl)[C@H](Br)C[C@@H]1Cl | 0.6 µg |  | inactive | inactive |  | inactive |  |  |  | 100% | 100% | 26%
4 | C[C@@](Cl)(/C=C/Br)[C@@H](Cl)/C=C/C(Cl)(CCl)CBr (stereo partly specified) | 0.1 µg | inactive | inactive | inactive | Not Active | inactive |  |  |  |  |  | 
